In brackets after ≈: the same amount, converted by molar mass.
Columns and labels:
Dipeptidyl peptidase 1 = Dipeptidyl peptidase 1 (Homo sapiens, UniProt P53634)
Description: Inhibition of human recombinant Cathepsin C using fluorogenic peptide substrate

[1] = Permeability of the compound by PAMPA; format: ADME
Cathepsin B = Cathepsin B (Homo sapiens, UniProt P07858)
Description: Inhibition of human recombinant Cathepsin B using fluorogenic peptide substrate

Human adenovirus 5 = assay: Antiviral activity against human adenovirus 5 infected in HEK293 cells assessed as reduction in viral induced cytopathogenicity incubated for 5 days by Celltiter-Glo luminescent cell viability assay; format: functional, organism-based; settings: Human mastadenovirus C, HEK293, 120 h
Cathepsin S = Cathepsin S (Homo sapiens, UniProt P25774)
Chain of Cathepsin S (P25774 whole entry): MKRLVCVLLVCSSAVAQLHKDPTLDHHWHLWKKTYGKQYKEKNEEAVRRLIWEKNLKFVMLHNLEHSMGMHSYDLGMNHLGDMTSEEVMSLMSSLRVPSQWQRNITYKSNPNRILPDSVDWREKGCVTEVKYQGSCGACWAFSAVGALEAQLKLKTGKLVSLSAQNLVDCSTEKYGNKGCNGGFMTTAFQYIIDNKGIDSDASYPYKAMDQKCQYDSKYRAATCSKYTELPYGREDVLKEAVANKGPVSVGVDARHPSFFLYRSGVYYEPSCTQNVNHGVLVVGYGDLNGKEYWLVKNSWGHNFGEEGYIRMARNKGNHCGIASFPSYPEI
Description: Inhibition of human recombinant Cathepsin S using fluorogenic peptide substrate

Cathepsin K = molecular target: T1, Cathepsin K (Homo sapiens, UniProt P43235)
T1 sequence (P43235 whole entry): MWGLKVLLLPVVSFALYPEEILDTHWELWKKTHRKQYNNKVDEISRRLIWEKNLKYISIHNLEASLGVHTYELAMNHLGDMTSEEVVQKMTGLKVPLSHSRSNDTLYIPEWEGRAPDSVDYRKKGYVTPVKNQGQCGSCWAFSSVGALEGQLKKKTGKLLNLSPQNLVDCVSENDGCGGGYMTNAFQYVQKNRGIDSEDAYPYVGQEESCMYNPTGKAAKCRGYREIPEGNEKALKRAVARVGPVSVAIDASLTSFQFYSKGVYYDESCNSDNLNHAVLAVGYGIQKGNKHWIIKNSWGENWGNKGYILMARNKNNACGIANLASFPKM
Description: Inhibition of human recombinant Cathepsin K using fluorogenic peptide substrate

[2] = system: adenain (human adenovirus serotype 5); assay: Inhibition of human adenovirus serotype 5 adenain protease expressed in Escherichia coli […] (DE3) using Ac-WLRGG*ARC(PT14)-NH2 as substrate by FLT assay
[3] = system: adenain (human adenovirus serotype 8); assay: Inhibition of human adenovirus serotype 8 adenain protease expressed in Escherichia coli […] (DE3) using Ac-WLRGG*ARC(PT14)-NH2 as substrate by FLT assay
Procathepsin L = Procathepsin L (Homo sapiens, UniProt P07711)
Chain of Procathepsin L (P07711 whole entry): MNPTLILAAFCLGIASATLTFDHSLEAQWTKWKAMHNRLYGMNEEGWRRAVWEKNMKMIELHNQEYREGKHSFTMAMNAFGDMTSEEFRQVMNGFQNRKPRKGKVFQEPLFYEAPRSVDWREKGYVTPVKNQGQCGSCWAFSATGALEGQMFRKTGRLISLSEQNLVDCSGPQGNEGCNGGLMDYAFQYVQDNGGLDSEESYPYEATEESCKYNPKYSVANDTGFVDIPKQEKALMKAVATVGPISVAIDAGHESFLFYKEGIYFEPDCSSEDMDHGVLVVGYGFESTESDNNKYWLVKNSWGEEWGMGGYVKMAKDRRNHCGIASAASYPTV
Description: Inhibition of human recombinant Cathepsin L using fluorogenic peptide substrate

[4] = Equilibrium solubility of the compound at pH 6.8; format: physicochemical; settings: buffer

Chain of Dipeptidyl peptidase 1 (P53634 25-134 limits assumed): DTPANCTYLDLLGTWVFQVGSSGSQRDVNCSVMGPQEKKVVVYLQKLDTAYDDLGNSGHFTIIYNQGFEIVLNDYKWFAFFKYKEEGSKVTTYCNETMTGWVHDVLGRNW
Chain of Dipeptidyl peptidase 1 (P53634 231-394 limits assumed): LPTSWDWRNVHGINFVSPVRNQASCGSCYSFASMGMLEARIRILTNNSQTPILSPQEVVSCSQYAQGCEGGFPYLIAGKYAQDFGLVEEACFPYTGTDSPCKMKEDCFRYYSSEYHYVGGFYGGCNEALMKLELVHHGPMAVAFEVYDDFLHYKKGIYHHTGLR
Chain of Dipeptidyl peptidase 1 (P53634 395-463 limits assumed): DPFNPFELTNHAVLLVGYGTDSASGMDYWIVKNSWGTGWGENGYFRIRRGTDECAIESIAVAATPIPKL

Compound	IC50 (Dipeptidyl peptidase 1) [µM]	logPm [1]	IC50 (Cathepsin B) [µM]	EC50 (Human adenovirus 5) [µM]	IC50 (Cathepsin S) [µM]	IC50 (Cathepsin K) [µM]	IC50 [2] [µM]	IC50 [3] [µM]	IC50 (Procathepsin L) [µM]	solubility thermodynamic [4] [µM]
CC(C)(C)[C@H](NC(=O)Cc1cc(Cl)cc(Cl)c1)C(=O)NCC(=O)NC/C=C/S(C)(=O)=O	> 100	-5.6	> 100	4.5	> 100	95	0.01	0.01	> 100	–
COc1ccc(C(=O)NCc2ccnc(C#N)n2)cc1C(=O)C(C)(C)c1cc(Cl)cc(Cl)c1	66	–	8.1	> 50	1	9.5	0.0002	0.0006	5.6	–
CN(C)CCOc1ccc(C(=O)NCC(=O)NCC#N)cc1C(=O)C(C)(C)c1cc(Cl)cc(Cl)c1	> 100	-5.5	> 100	–	> 100	> 100	0.007	0.01	100	> 1000
CCN[C@H](C(=O)N[C@H](C(=O)NCC(=O)NC/C=C/S(C)(=O)=O)C(C)(C)C)c1cc(Cl)cc(Cl)c1	> 100	–	> 100	31	> 100	73	< 0.001	< 0.001	> 100	–
CN(C)CCOc1ccc(C(=O)NCc2ccnc(C#N)n2)cc1C(=O)C(C)(C)c1cc(Cl)cc(Cl)c1	18	-4.2	81	3.9	24	19	0.0001	0.0001	> 11	490 (≈ 265 µg/mL)
CS(=O)(=O)N[C@H](C(=O)N[C@@H](Cc1ccccc1)C(=O)NCC(=O)NCC#N)c1cccc(Cl)c1	–	-5.6	–	–	–	–	0.03	0.04	–	–
COc1ccc(C(=O)NCC(=O)NCC#N)cc1C(=O)Cc1cc(Cl)cc(Cl)c1	–	–	–	–	–	–	1.1	2.74	–	–
COc1ccc(C(=O)NCC(=O)NCC#N)cc1C(=O)C(C)(C)c1cc(Cl)cc(Cl)c1	> 100	-5	> 100	–	> 100	> 100	0.03	0.04	> 100	50 (≈ 23.1 µg/mL)
COc1ccc(C(=O)NCC(=O)NC/C=C/S(C)(=O)=O)cc1C(=O)C(C)(C)c1cc(Cl)cc(Cl)c1	> 100	-4.1	> 100	–	> 100	> 100	0.001	0.001	> 100	–
COc1ccc(C(=O)NCC(=O)NCC#N)cc1C(=O)C(C)c1cc(Cl)cc(Cl)c1 (configuration not stated)	–	–	–	–	–	–	0.31	0.95	–	–
CC[C@H](C(=O)N[C@H]1CCN(CC(=O)NC/C=C/S(C)(=O)=O)C1=O)c1cc(Cl)cc(Cl)c1	> 100	-5.5	> 100	8.9	> 100	> 100	0.002	0.004	> 100	–

Reference: ChEMBL document CHEMBL3352786, “Structure-based design and optimization of potent inhibitors of the adenoviral protease” (Bioorg Med Chem Lett, 2015)
